Measurements published in patent US20170143701A1, “CARBOHYDRATE METABOLISM-AMELIORATING AGENT” (SUNTORY HOLDINGS LIMITED, priority 2014, published 2017).

System: NCI-H716 cells
Experiment: In vitro GLP-1 secretion-accelerating action: amount of active GLP-1 secreted (ELISA)
Type: cell-based
Conditions: 1 hour; for Significant difference (p < 0.05) vs control group, amount of active GLP-1 secreted: 10 mM, Student's t-test; for Amount of active GLP-1 secreted (relative value to control group as 100), average value: cyclic dipeptide 10 mM with 10 μM Sitagliptin phosphate, group with no cyclic dipeptide = 100
Protocol: Among the cyclic dipeptides, 92 highly water-soluble cyclic dipeptides were used in the following experiment. In each well of a Poly-L-Lysine 96-well plate, NCI-H716 cells suspended in 100 μL of a DMEM (with 10% FBS, 2 mM glutamine, and 1% antibiotics added in advance) were seeded at 0.5×10^5 cells/well, and cultured in a CO2 incubator (manufactured by ESPEC CORP.) for 48 hours. After washing with PBS(+), 100 μL of a PBS(+) solution with each cyclic dipeptide at a final concentration of 10 mM and 10 μM of Sitagliptin phosphate added therein was added to the cells. After 1 hour, the resultant solution was recovered, and the amount of active GLP-1 in the solution was measured by using the ELISA kit. In the analysis, the amount of active GLP-1 for a group with no cyclic dipeptide added was defined as 100, and relative values thereto were used.

Row | Compound | Significant difference (p < 0.05) vs control group, amount of active GLP-1 secreted (Table 2, Experiment 2) | Amount of active GLP-1 secreted (relative value to control group as 100), average value (Table 2, Experiment 2) | Significant difference (p < 0.05) vs control group, amount of active GLP-1 secreted (Table 3, Experiment 3) | Amount of active GLP-1 secreted (relative value to control group as 100), average value (Table 3, Experiment 3)
1 | NCCCC[C@@H]1NC(=O)[C@H](Cc2c[nH]c3ccccc23)NC1=O [compound 59, cyclo-tryptophanyl-lysine] | Yes | 239 | – | –
2 | NC(=O)CCC1NC(=O)C(Cc2ccccc2)NC1=O (stereo not drawn) [compound 65, cyclo-glutaminyl-phenylalanine] | Yes | 227 | – | –
3 | CC(C)CC1NC(=O)C(CCCCN)NC1=O (stereo not drawn) [compound 68, Cyclo(Leu-Lys)] | No | 208 | – | –
4 | C[C@@H]1NC(=O)[C@H](CCCCN)NC1=O [compound 69, Cyclo(Ala-Lys)] | No | 161 | – | –
5 | O=C1NCC(=O)N2CC(O)CC12 (stereo not drawn) [compound 73, Cyclo(Hyp-Gly)] | No | 121 | – | –
6 | O=C1C2CC(O)CN2C(=O)C2CCCN12 (stereo not drawn) [compound 74, Cyclo(Hyp-Pro)] | No | 115 | – | –
7 | O=C1NC(Cc2c[nH]c3ccccc23)C(=O)NC1CO (stereo not drawn) [compound 78, Cyclo(Trp-Ser)] | No | 119 | – | –
8 | NCCCCC1NC(=O)CNC1=O (stereo not drawn) [compound 96, cyclo-lysyl-glycine] | – | – | Yes | 133
9 | NCCCC[C@@H]1NC(=O)[C@H](CCC(=O)O)NC1=O [compound 97, Cyclo(Glu-Lys)] | – | – | No | 66
10 | NCCCC[C@@H]1NC(=O)[C@H](CO)NC1=O [compound 98, cyclo-seryl-lysine] | – | – | Yes | 71
11 | CC(C)[C@@H]1NC(=O)[C@H](CCCCN)NC1=O [compound 99, cyclo-valyl-lysine] | – | – | Yes | 532
12 | NCCCCC1NC(=O)C(CC(=O)O)NC1=O (stereo not drawn) [compound 100, Cyclo(Asp-Lys)] | – | – | No | 116
13 | NCCCC[C@@H]1NC(=O)[C@H](CC(N)=O)NC1=O [compound 101, cyclo-asparaginyl-lysine] | – | – | Yes | 250
14 | NCCCC[C@@H]1NC(=O)[C@H](CCC(N)=O)NC1=O [compound 102, Cyclo(Gln-Lys)] | – | – | No | 112
15 | O=C1NC(Cc2cnc[nH]2)C(=O)NC1Cc1cnc[nH]1 (stereo not drawn) [compound 107, cyclo-histidyl-histidine] | – | – | Yes | 182
16 | CC(O)C1NC(=O)C(Cc2cnc[nH]2)NC1=O (stereo not drawn) [compound 109, cyclo-threonyl-histidine] | – | – | Yes | 290
17 | O=C(O)CC1NC(=O)C(Cc2cnc[nH]2)NC1=O (stereo not drawn) [compound 110, cyclo-aspartyl-histidine] | – | – | Yes | 340
18 | NC(=O)C[C@@H]1NC(=O)[C@H](Cc2cnc[nH]2)NC1=O [compound 111, cyclo-asparaginyl-histidine] | – | – | Yes | 341
19 | NC(N)=NCCC[C@@H]1NC(=O)[C@H](Cc2cnc[nH]2)NC1=O [compound 112, Cyclo(Arg-His)] | – | – | No | 106
20 | C[C@@H]1NC(=O)[C@H](CCC(=O)O)NC1=O [compound 113, Cyclo(Glu-Ala)] | – | – | No | 157
21 | CC1NC(=O)C(C(C)O)NC1=O (stereo not drawn) [compound 114, Cyclo(Thr-Ala)] | – | – | No | 89
